Test results from patent EP2236511A2, “LIGANDS OF ALPHA-ADRENOCEPTORS AND OF DOPAMINE, HISTAMINE, IMIDAZOLINE AND SEROTONIN RECEPTORS AND THE USE THEREOF” (priority 2007, dated 2009).
Counter-ions that a name gives are not always drawn. Like-named read-outs stand apart in the source and are kept apart here.

Tests used:
[1] = biological target: T1, recombinant human 5-HT2A receptor (Homo sapiens, UniProt P28223); assay: Radioligand binding to serotonin receptor 5-HT2A ([3H] Ketanserin, CHO-K1 membranes); settings: 10 µM ligand
T1 construct: expressed in transfected cells; host or cells: CHO-K1
T1 sequence (P28223 whole entry): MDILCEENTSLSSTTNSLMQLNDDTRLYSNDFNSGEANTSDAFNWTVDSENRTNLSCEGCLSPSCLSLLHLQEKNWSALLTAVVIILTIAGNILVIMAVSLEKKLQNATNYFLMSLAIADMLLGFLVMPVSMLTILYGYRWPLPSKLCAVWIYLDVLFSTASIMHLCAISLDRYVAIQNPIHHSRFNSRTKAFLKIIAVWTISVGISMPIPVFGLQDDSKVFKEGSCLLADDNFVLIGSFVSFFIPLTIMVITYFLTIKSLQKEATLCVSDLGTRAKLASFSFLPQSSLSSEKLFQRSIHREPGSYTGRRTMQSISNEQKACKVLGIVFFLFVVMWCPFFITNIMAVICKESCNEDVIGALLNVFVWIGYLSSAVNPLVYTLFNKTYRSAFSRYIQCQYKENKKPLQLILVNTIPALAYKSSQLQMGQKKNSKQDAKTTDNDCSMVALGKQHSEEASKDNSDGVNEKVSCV
Source text: 9-C. […] J Neurochem. […] Ketanserin is used as positive control.

[2] = biological target: T2, serotonin receptor 5-HT1B (Rattus norvegicus, UniProt P28564); assay: Radioligand binding to serotonin receptor 5-HT1B ([125I] cyanopindolol, rat brain cortex membranes); settings: for 5-HT1B % inhibition: 10 µM ligand; for inhibition at 10 µM: read-out: 5-HT1B % inhibition
T2 construct: membrane species are prepared from rat brains (Wistar) by homogenization of species of rat brain-cortices; from tissue; host or cells: rat (Wistar) brain cortex
T2 sequence (P28564 whole entry): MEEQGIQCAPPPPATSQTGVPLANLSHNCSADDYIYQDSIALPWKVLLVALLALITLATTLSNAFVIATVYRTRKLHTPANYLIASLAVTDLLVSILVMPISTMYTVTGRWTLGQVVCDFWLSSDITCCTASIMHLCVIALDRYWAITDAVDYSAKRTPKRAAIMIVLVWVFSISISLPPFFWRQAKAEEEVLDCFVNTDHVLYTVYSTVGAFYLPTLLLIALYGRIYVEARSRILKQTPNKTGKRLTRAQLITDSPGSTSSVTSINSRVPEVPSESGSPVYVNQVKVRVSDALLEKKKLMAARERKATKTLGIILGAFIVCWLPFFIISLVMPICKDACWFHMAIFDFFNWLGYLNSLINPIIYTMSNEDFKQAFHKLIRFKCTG
Source text: Serotonin is used as positive control.

recombinant human 5-HT1A = biological target: T3, recombinant human 5-HT1A (Homo sapiens, UniProt P08908); assay: Radioligand binding to serotonin receptor 5-HT1A ([3H] 8-OH-DPAT, CHO membranes); settings: for 5-HT1A % inhibition: 10 µM ligand; for inhibition at 10 µM: read-out: 5-HT1A % inhibition
T3 construct: expressed in transfected cells; host or cells: CHO
T3 sequence (P08908 1-422): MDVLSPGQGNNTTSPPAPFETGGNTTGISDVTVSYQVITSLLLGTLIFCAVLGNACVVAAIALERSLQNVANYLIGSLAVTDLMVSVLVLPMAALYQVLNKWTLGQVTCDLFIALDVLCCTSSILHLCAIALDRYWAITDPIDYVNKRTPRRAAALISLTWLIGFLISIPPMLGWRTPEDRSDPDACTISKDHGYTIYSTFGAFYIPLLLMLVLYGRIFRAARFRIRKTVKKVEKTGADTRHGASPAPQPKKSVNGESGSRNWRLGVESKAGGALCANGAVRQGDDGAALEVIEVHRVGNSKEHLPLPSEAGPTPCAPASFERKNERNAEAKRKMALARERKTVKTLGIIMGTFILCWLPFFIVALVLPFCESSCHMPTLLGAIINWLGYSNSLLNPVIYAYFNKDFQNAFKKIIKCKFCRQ
Source text: J Pharmacol Exp Ther. 306(1): 301-309, 2003]. […] Metergoline is used as positive control.

[3] = biological target: T4, recombinant human 5-HT6 receptor (Homo sapiens, UniProt P50406); assay: Radioligand binding to serotonin receptor 5-HT6 ([3H] Lysergic acid diethylamide, HeLa membranes); settings: for 5-HT6 % inhibition: 10 µM ligand
T4 construct: expressed in transfected cells; host or cells: HeLa
T4 sequence (P50406 whole entry): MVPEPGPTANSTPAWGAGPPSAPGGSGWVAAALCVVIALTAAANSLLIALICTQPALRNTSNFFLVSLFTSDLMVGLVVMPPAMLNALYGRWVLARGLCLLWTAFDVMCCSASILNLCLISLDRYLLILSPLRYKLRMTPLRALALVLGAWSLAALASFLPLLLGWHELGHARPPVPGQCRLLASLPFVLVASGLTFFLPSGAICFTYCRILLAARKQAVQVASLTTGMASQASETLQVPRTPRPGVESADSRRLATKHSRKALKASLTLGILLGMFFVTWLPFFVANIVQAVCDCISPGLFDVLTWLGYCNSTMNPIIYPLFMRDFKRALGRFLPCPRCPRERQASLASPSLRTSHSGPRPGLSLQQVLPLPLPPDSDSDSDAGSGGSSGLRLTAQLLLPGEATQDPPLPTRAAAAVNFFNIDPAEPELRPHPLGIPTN
Source text: Mol Pharmacol. 43:320-327, 1993]. […] Methiothepin is used as positive control.

human 5-HT7 receptor = biological target: T5, human 5-HT7 receptor (Homo sapiens, UniProt P34969); assay: Radioligand binding to serotonin receptor 5-HT7 ([3H] Lysergic acid diethylamide, CHO membranes); settings: for 5-HT7 % inhibition: 10 µM ligand; for inhibition at 10 µM: read-out: 5-HT7 % inhibition
T5 construct: expressed in transfected cells; host or cells: CHO
T5 sequence (P34969 whole entry): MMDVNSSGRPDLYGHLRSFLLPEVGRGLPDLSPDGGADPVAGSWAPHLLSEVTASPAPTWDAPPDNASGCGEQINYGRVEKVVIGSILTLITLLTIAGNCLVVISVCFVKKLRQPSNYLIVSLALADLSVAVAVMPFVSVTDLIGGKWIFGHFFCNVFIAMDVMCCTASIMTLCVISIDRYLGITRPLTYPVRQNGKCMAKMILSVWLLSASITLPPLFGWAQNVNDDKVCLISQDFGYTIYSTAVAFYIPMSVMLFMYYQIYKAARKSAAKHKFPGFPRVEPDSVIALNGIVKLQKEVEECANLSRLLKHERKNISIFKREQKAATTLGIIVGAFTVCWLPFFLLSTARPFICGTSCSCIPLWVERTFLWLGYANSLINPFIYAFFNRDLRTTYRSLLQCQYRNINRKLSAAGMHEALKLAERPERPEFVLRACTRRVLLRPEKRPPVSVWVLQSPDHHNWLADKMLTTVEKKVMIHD
Source text: For this purpose sDNA of human 5-HT7 receptor is expressed in CHO cells as it was described in [Shen Y, Monsma FJ Jr, Metcalf MA, Jose PA, Hamblin MW, and Sibley DR. […] J. Biol. Chem. 1993, 268, 18200 - 18204]. […] J. Pharmacol. Exp. Ther. 1994, 268:1403-1410]. […] Methiothepin is used as positive control.

[4] = biological target: T6, recombinant human 5-HT2C receptor (Homo sapiens, UniProt P28335); assay: Radioligand binding to serotonin receptor 5-HT2C ([3H] Mesulergine, CHO-K1 membranes)
T6 construct: expressed in transfected cells; host or cells: CHO-K1
T6 sequence (P28335 33-458): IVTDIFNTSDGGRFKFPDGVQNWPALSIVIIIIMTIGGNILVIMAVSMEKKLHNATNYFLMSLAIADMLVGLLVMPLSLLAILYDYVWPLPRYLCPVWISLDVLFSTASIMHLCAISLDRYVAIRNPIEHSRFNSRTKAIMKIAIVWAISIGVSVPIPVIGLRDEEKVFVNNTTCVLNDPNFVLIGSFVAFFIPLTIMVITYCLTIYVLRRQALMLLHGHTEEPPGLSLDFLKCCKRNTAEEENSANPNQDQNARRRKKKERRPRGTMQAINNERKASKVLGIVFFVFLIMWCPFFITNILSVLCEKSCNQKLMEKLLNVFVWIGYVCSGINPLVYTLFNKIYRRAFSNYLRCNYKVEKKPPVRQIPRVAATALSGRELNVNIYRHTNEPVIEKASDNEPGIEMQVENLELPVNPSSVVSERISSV
Source text: J Neurochem. 69: 1449 - 1458, 1997]. […] SB242084 is used as positive control.

[5] = biological target: T7, recombinant human 5-HT2B receptor (Homo sapiens, UniProt P41595); assay: Radioligand binding to serotonin receptor 5-HT2B ([3H] Lysergic acid diethylamide, CHO-K1 membranes)
T7 construct: expressed in transfected cells; host or cells: CHO-K1
T7 sequence (P41595 whole entry): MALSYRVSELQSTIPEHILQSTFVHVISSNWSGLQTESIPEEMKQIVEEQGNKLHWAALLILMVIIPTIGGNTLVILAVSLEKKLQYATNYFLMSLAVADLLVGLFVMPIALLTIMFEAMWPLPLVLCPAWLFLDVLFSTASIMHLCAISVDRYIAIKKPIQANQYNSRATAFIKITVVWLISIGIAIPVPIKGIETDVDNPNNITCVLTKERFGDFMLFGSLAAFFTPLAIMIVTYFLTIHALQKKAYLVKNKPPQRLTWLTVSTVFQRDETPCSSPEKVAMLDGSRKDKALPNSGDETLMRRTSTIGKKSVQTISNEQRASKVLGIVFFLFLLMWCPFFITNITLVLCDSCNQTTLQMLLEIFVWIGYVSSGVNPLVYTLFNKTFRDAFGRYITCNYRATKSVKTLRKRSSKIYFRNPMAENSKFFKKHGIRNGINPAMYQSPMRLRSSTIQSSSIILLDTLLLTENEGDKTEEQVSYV

[6] = read-out: 5-HT2B % inhibition, 10 µM ligand

| SMILES | inhibition at 10 µM [1] [%] | inhibition at 10 µM [2] [%] | inhibition at 10 µM ([4]; read-out: 5-HT2C % inhibition) [%] | inhibition at 10 µM ([5]; read-out: 5-HT2B % inhibition) [%] | inhibition at 10 µM (human 5-HT7 receptor) [%] | inhibition at 10 µM (recombinant human 5-HT1A) [%] | inhibition at 10 µM ([3]; read-out: 5-HT6 % inhibition) [%] | also measured |
| --- | --- | --- | --- | --- | --- | --- | --- | --- |
| CN1CCc2c(c3cc(F)ccc3n2C#Cc2ccccc2)C1 [1.1(2)] |  |  |  |  |  |  |  | 5-HT2A % inhibition [1]: 99%; 5-HT1B % inhibition [2]: 6%; 5-HT1A % inhibition (recombinant human 5-HT1A): 30%; 5-HT6 % inhibition [3]: 95%; 5-HT7 % inhibition (human 5-HT7 receptor): 59% |
| Cc1ccc2c(c1)c1c(n2C#Cc2ccccc2)CCN(C)C1 [1.1(4)] |  |  |  |  |  |  |  | 5-HT2A % inhibition [1]: 99%; 5-HT1B % inhibition [2]: 26%; 5-HT2C % inhibition ([4]; 10 µM ligand): 99%; 5-HT2B % inhibition ([5]; 10 µM ligand): 86%; 5-HT1A % inhibition (recombinant human 5-HT1A): 38%; 5-HT6 % inhibition [3]: 97%; 5-HT7 % inhibition (human 5-HT7 receptor): 93% |
| CN1CCc2c(c3cc(C(F)(F)F)ccc3n2CCc2ccccc2)C1 [1.1.2(1-7)·HCl, 2-methyl-8-trifluoromethyl-5-phenethyl-1,2,3,4-tetrahydro-1H-pyrido[4,3-b]indole] | 91 | 13 | 92 | 89 | 94 |  |  |  |
| CN1CCc2c(c3cc(F)ccc3n2CC(O)c2ccccc2)C1 (stereo not shown) [1.1.2(1-9)] |  |  |  |  |  |  |  | 5-HT2A % inhibition [1]: 97%; 5-HT1B % inhibition [2]: 5%; 5-HT1A % inhibition (recombinant human 5-HT1A): -2%; 5-HT6 % inhibition [3]: 89%; 5-HT7 % inhibition (human 5-HT7 receptor): 84% |
| Cc1ccc2c(c1)c1c(n2CC(O)c2ccccc2)CCN(C)C1 (stereo not shown) [1.1.2(1-10), 2,8-dimethyl-5-[(2-phenyl-2-hydroxy)ethyl]-1,2,3,4-tetrahydro-1H-pyrido[4,3-b]indole] |  |  |  |  |  |  |  | 5-HT2A % inhibition [1]: 97%; 5-HT1B % inhibition [2]: 41%; 5-HT1A % inhibition (recombinant human 5-HT1A): 24%; 5-HT6 % inhibition [3]: 102%; 5-HT7 % inhibition (human 5-HT7 receptor): 96% |
| COc1ccc(CCn2c3c(c4cc(C)ccc42)CN(C)CC3)cc1 [1.1.2(1-14)·HCl] |  | 52 | 97 | 97 | 100 | 57 | 108 |  |
| Cc1ccc2c(c1)c1c(n2CCc2ccc(F)cc2)CCN(C)C1 [1.1.2(1-16)·HCl] | 99 | 36 | 99 | 91 | 95 | 37 | 103 |  |
| Cc1ccc2c(c1)c1c(n2CCc2ccc(C(F)(F)F)cc2)CCN(C)C1 [1.1.2(1-18)·HCl] | 100 | 45 | 99 |  | 103 | 53 | 94 | inhibition at 10 µM [5, 6]: 87% |
| Cc1ccc2c(c1)c1c(n2CCc2ccccc2)CCCN(C)C1 [1.2.2(1-2)·HCl] | 89 |  |  |  | 97 | 20 |  | inhibition at 10 µM [5, 6]: 84% |
| Cc1ccc(CCn2c3c(c4cc(F)ccc42)CN(C)CCC3)cn1 [1.2.2(4-2)·2HCl] |  | 60 |  |  |  |  |  | inhibition at 1 µM ([4]; read-out: 5-HT2C % inhibition): 78%; inhibition at 1 µM ([3]; read-out: 5-HT6 % inhibition): 84% |
| Cc1ccc2c(c1)c1c(n2CCCc2ccccc2)CCN(C)C1 [1.3.3(2)·HCl] | 99 | 31 | 98 | 95 |  |  | 103 |  |
| CN1CCc2c(c3cc(F)ccc3n2CCCc2ccccc2)C1 [1.3.3(8)·HCl] | 97 | 12 | 97 | 96 | 83 | -4 | 93 |  |
| CN1CCc2c(c3cc(F)ccc3n2Cc2ccccc2)C1 [1.9(3)·HCl] | 97 | 12 | 100 | 95 | 81 |  | 89 |  |
| Cc1ccc2c(c1)c1c(n2Cc2ccccc2)CCCN(C)C1 [1.10(4)·HCl] | 91 | 31 | 98 | 70 | 75 | 19 | 69 |  |
